Test results as given in patent publication US12006328B2, “Thieno[2,3-d]pyrimidin-4-one derivatives as NMDAR modulators and uses related thereto” (Emory University, priority 2014, dated 2024).

How the values were obtained:
Type in all cases: cell-based
[1] = biological target: GluN2D-containing NMDA receptors (Homo sapiens, UniProt O15399); experiment: Two-electrode voltage-clamp recordings from Xenopus laevis oocytes, GluN2D; conditions: for I10 μM/ICONTROL (mean ± SEM, %) Glu N2D: 10 μM test compound with glutamate 100 μM and glycine 30 μM, Tables 1-5; for I10 μM/ICONTROL (mean ± SEM, %) Glu N2D / maximal potentiation Glu N2D: percent of response without compound; for IC50 / maximal potentiation Glu N2D: Table 2; for IC50: glutamate 100 μM, glycine 30 μM, Hill fit, read-out: IC50 Glu N2D; for maximal potentiation Glu N2D: in brackets below IC50
Chain of GluN2D-containing NMDA receptors (O15399 28-1336, other chains not shown): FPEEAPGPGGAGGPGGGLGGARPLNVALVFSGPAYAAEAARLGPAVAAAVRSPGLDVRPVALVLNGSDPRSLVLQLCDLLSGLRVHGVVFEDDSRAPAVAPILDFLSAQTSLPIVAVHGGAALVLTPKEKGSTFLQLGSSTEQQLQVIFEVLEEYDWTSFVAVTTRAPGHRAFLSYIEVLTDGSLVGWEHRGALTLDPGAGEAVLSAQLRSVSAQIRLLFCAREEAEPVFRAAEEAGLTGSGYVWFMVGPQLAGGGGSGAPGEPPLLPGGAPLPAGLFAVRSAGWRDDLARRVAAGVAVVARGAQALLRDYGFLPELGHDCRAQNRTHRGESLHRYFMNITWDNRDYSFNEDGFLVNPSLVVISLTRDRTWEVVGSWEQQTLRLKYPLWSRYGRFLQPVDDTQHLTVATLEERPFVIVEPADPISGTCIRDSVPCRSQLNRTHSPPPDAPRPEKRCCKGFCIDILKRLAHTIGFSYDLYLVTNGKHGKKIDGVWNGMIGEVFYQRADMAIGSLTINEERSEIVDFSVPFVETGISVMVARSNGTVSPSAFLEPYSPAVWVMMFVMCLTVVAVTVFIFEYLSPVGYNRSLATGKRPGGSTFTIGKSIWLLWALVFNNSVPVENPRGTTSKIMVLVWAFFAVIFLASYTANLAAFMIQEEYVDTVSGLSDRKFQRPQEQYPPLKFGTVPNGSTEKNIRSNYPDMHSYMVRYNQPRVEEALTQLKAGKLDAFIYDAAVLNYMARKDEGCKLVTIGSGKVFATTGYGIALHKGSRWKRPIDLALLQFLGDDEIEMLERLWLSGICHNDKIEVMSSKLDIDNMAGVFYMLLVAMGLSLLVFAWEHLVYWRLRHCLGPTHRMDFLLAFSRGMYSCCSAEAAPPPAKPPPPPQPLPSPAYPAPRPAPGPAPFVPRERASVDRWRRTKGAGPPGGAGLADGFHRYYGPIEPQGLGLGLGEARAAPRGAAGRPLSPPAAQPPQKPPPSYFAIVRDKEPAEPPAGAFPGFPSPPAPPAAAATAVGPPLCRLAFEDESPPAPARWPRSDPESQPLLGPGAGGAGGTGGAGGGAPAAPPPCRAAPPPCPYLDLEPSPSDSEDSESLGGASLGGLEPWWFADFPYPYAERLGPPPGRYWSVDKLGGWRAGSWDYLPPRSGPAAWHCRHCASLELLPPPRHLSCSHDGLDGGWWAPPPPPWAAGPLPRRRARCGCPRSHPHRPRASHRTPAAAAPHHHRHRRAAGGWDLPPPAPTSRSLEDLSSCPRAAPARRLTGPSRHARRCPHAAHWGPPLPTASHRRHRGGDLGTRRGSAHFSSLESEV
Experimental: (§1) Xenopus laevis oocytes were injected with cRNA encoding the NMDA receptor subunits. Two to seven days after injection, two-electrode voltage-clamp recordings were performed. Extracellular solutions were made from a solutions containing (in mM) 90 NaCl, 3 KCl, 10 HEPES, 0.5 BaCl2, 0.01 EDTA (pH 7.4 with NaOH). Voltage and current electrodes were filled with 0.3 M and 3.0 M KCl, respectively.
(§2) Potency was determined by adding increasing concentrations of test compound to saturating concentrations of glutamate (100 μM) and glycine (30 μM), and the response amplitude measured. The response in the presence of each concentration of test compound plus agonists was expressed as a percent of the response in the absence of test compound.

[2] = biological target: GluN2C-containing NMDA receptors (Homo sapiens, UniProt Q14957); experiment: Two-electrode voltage-clamp recordings from Xenopus laevis oocytes, GluN2C; conditions: for I10 μM/ICONTROL (mean ± SEM, %) Glu N2C: 10 μM test compound with glutamate 100 μM and glycine 30 μM, Tables 1-5; for I10 μM/ICONTROL (mean ± SEM, %) Glu N2C / maximal potentiation Glu N2C: percent of response without compound; for IC50 / maximal potentiation Glu N2C: Table 2; for IC50: glutamate 100 μM, glycine 30 μM, Hill fit, read-out: IC50 Glu N2C; for maximal potentiation Glu N2C: in brackets below IC50
Chain of GluN2C-containing NMDA receptors (Q14957 20-1233, other chains not shown): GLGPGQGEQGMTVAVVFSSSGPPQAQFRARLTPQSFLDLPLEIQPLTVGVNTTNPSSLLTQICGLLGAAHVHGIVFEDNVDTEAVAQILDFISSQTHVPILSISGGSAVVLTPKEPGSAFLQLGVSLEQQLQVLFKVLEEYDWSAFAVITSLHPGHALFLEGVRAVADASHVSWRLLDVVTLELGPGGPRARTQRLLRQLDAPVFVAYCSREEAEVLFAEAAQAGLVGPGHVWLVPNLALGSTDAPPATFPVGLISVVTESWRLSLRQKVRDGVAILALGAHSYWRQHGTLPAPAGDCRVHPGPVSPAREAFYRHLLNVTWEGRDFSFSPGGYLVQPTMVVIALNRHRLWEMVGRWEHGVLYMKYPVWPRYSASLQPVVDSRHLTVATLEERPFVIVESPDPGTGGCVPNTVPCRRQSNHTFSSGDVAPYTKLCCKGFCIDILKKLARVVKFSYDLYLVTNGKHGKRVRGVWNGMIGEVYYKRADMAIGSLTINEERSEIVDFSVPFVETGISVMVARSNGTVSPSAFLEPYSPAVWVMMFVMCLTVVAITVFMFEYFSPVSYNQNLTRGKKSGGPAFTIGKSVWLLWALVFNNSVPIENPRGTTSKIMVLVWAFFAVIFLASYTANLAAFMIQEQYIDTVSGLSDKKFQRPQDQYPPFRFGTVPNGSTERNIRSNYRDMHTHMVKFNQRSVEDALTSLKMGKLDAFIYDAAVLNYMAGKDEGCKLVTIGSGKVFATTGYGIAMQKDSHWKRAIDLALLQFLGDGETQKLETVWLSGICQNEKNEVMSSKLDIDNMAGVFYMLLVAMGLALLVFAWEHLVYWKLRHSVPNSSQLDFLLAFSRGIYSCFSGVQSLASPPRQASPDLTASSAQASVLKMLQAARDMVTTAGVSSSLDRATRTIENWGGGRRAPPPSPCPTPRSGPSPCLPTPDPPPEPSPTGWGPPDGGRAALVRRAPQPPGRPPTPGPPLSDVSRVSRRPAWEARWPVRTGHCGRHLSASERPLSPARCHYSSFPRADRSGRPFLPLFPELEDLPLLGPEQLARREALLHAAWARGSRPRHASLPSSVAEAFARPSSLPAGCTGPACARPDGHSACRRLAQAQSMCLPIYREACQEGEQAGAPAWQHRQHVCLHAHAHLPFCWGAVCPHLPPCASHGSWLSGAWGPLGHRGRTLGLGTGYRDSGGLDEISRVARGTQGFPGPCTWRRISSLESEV
Experimental: as §1, §2

[3] = biological target: GluN2B-containing NMDA receptors (Homo sapiens, UniProt Q13224); experiment: Two-electrode voltage-clamp recordings from Xenopus laevis oocytes, GluN2B; conditions: for I10 μM/ICONTROL (mean ± SEM, %) Glu N2B: 10 μM test compound with glutamate 100 μM and glycine 30 μM, Tables 1-5; for I10 μM/ICONTROL (mean ± SEM, %) Glu N2B / maximal potentiation Glu N2B: percent of response without compound; for IC50 / maximal potentiation Glu N2B: Table 2; for IC50: glutamate 100 μM, glycine 30 μM, Hill fit, read-out: IC50 Glu N2B; for maximal potentiation Glu N2B: in brackets below IC50
Chain of GluN2B-containing NMDA receptors (Q13224 27-1484, other chains not shown): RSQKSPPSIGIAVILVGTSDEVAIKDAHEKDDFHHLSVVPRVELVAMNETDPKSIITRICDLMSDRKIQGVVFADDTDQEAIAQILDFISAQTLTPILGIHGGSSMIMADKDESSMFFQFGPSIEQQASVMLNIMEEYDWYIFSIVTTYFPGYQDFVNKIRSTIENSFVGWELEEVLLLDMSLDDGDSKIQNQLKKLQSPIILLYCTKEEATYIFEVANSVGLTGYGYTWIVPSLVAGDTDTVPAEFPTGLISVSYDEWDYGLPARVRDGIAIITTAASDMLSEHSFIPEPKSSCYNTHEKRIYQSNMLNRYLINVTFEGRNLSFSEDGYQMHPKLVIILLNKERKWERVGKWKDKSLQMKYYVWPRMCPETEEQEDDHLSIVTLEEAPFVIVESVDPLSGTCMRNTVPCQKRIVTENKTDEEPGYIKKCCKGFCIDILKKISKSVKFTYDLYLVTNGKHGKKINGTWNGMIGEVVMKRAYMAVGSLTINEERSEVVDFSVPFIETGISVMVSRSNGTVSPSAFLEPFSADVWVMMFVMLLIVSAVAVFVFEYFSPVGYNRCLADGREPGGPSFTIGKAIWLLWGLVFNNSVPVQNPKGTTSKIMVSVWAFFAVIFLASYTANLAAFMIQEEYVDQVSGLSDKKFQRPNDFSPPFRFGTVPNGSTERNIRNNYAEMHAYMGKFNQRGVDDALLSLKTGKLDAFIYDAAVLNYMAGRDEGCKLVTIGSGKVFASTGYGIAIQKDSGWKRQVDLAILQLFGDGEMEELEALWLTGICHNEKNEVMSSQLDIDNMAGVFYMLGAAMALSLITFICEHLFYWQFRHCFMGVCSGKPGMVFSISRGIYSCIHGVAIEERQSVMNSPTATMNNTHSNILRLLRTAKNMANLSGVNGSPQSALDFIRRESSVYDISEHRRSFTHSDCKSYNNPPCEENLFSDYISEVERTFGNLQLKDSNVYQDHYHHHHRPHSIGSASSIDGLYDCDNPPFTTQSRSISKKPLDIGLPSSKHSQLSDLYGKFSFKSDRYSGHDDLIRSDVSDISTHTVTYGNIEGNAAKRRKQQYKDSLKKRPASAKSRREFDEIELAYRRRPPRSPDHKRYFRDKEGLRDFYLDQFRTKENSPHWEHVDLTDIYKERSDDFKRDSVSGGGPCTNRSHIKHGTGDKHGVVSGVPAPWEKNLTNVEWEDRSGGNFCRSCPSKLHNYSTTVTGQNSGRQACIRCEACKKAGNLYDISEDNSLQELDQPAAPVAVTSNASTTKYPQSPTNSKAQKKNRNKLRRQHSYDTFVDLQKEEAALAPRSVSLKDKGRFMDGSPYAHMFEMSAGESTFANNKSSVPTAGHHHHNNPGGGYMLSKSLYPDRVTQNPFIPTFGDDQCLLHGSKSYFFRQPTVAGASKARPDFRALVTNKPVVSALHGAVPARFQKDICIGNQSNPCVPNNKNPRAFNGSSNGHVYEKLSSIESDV
Experimental: as §1, §2

SMILES	I10 μM/ICONTROL (mean ± SEM, %) Glu N2D [1]	I10 μM/ICONTROL (mean ± SEM, %) Glu N2C [2]	I10 μM/ICONTROL (mean ± SEM, %) Glu N2B [3]	IC50 [1]	maximal potentiation Glu N2D [1]	IC50 [2]	maximal potentiation Glu N2C [2]	IC50 [3]	maximal potentiation Glu N2B [3]
COC(=O)[C@@H]1CCCN1C(=O)Cn1cnc2sc(C)c(-c3ccc(Br)cc3)c2c1=O	147 ± 12.7%	159 ± 9.5%	109 ± 4.9%	–	–	–	–	–	–
Cc1sc2ncn(Cc3cn(CCC4OCCCO4)nn3)c(=O)c2c1-c1cccc(Cl)c1	88 ± 3.4%	88 ± 0.5%	89 ± 2.5%	–	–	–	–	–	–
Cc1sc2ncn(Cc3cnnn3CCC3OCCCO3)c(=O)c2c1-c1cccc(Cl)c1	91 ± 1.3%	92 ± 0.8%	89 ± 2.5%	–	–	–	–	–	–
COCCn1cc(Cn2cnc3sc(C)c(-c4cccc(Cl)c4)c3c2=O)nn1	84 ± 3.4%	93 ± 2.2%	99 ± 1.9%	–	–	–	–	–	–
Cc1sc2ncn(CC(=O)N3CCCCC3)c(=O)c2c1-c1ccc(Br)c(Br)c1 [1 / 3,4-Br—Ph / Me / —Npiperidine]	143 ± 3.2%	168 ± 13.9%	–	94 µM	(600) %	15 µM	(300) %	–	–
Cc1sc2ncn(CC(=O)N3CCCCC3)c(=O)c2c1-c1cc(Br)cc(Br)c1 [1 / 3,5-Br—Ph / Me / —Npiperidine]	179 ± 10.1%	232 ± 14.4%	–	–	–	4.3 µM	(233) %	–	–
Cc1sc2ncn(CC(=O)N3CCCCC3)c(=O)c2c1-c1cc(C(F)(F)F)cc(C(F)(F)F)c1 [1 / 3,5-CF3—Ph / Me / —Npiperidine]	–	–	–	–	–	1.4 µM	(155) %	–	–
Cc1sc2ncn(CC(=O)c3cccs3)c(=O)c2c1-c1cccc(Cl)c1 [1 / 3-Cl—Ph / Me / 2-thiophene]	137 ± 6.3%	125 ± 2.8%	133 ± 3.9%	15 µM	(224) %	19 µM	(293) %	14 µM	(207) %
CCOC(=O)Cn1cnc2sc(C)c(-c3cccc(Cl)c3)c2c1=O [1 / 3-Cl—Ph / Me / OEt]	136 ± 3.0%	141 ± 7.0%	127 ± 4.6%	16 µM	(245) %	26 µM	(390) %	17 µM	(148) %
Cc1sc2ncn(CC(=O)c3ccc(Cl)cc3Cl)c(=O)c2c1-c1cccc(I)c1 [1 / 3-I—Ph / Me / 2,4-Cl—Ph]	93 ± 1.8%	96 ± 4.8%	–	–	–	–	–	–	–
Cc1sc2ncn(CC(=O)C3CCCC3)c(=O)c2c1-c1cccc(I)c1 [1 / 3-I—Ph / Me / -cyclopentyl]	133 ± 3.0%	166 ± 9.5%	–	14 µM	(191) %	9.4 µM	(225) %	–	–
CON(C)C(=O)Cn1cnc2sc(C)c(-c3cccc(I)c3)c2c1=O [1 / 3-I—Ph / Me / —N(OMe)Me]	119 ± 8.9%	109 ± 4.9%	–	–	–	–	–	–	–
Cc1sc2ncn(CC(=O)N3CCCCC3)c(=O)c2c1-c1cccc(I)c1 [1 / 3-I—Ph / Me / —Npiperidine]	124 ± 4.8%	145 ± 11.4%	–	–	–	–	–	–	–
Cc1sc2ncn(CC(=O)N3CCCCC3)c(=O)c2c1-c1ccc(Cl)cc1 [1 / 4-Cl—Ph / Me / —Npiperidine]	–	–	–	52 µM	(163) %	136 µM	(232) %	–	–
Cc1ccc(-c2csc3ncn(CC(=O)N4CCC4)c(=O)c23)cc1 [1 / 4-Me—Ph / H / —Nazetidine]	–	–	–	57 µM	(0) %	> 100 µM	–	–	–
